Reference: patent US20250236639A1, “NEUROACTIVE STEROIDS AND COMPOSITIONS THEREOF” (Sage Therapeutics, Inc., priority 2019, published 2025)

Molecular target: GABAA receptor
Assay: Steroid inhibition of [35S]-TBPS binding, rat brain cortical membranes
Details: 3 nM [35S]-TBPS, in the presence of 5 mM GABA
Protocol: [^35S]-t-Butylbicyclophosphorothionate (TBPS) binding assays using rat brain cortical membranes in the presence of 5 mM GABA has been described (Gee et al, J. Pharmacol. Exp. Ther. 1987, 241, 346-353; Hawkinson et al, Mol. Pharmacol. 1994, 46, 977-985; Lewin, A. H et al., Mol. Pharmacol. 1989, 35, 189-194).
Briefly, cortices are rapidly removed following decapitation of carbon dioxide-anesthetized Sprague-Dawley rats (200-250 g). The cortices are homogenized in 10 volumes of ice-cold 0.32 M sucrose using a glass/teflon homogenizer and centrifuged at 1500×g for 10 min at 4° C. The resultant supernatants are centrifuged at 10,000×g for 20 min at 4° C. to obtain the P2 pellets. The P2 pellets are resuspended in 200 mM NaCl/50 mM Na—K phosphate pH 7.4 buffer and centrifuged at 10,000×g for 10 min at 4° C. This washing procedure is repeated twice and the pellets are resuspended in 10 volumes of buffer. Aliquots ([…]) of the membrane suspensions are incubated with 3 nM [^35S]-TBPS and […] aliquots of test drug dissolved in dimethyl sulfoxide (DMSO) (final 0.5%) in the presence of 5 mM GABA. The incubation is brought to a final volume of 1.0 mL with buffer. Nonspecific binding is determined in the presence of […] and ranged from 15 to 25%. Following a 90 min incubation at room temp, the assays are terminated by filtration through glass fiber filters (Schleicher and Schuell No. 32) using a cell harvester (Brandel) and rinsed three times with ice-cold buffer. Filter bound radioactivity is measured by liquid scintillation spectrometry. Non-linear curve fitting of the overall data for each drug averaged for each concentration is done using Prism (GraphPad). […] The concentration of test compound producing 50% inhibition (IC50) of specific binding and the maximal extent of inhibition (Imax) are determined for the individual experiments with the same model used for the overall data and then the means±SEM.s of the individual experiments are calculated.
Various compounds are or can be screened to determine their potential as modulators of [^35S]-TBPS binding in vitro. These assays are or can be performed in accordance with the above

| Structure (SMILES) | IC50 [nM] |
| --- | --- |
| COC[C@@]1(O)CC[C@H]2[C@H](CC[C@@H]3[C@@H]2CC[C@]2(C)[C@@H](C(C)(Cn4cc(C#N)cn4)OC)CC[C@@H]32)C1 (stereo in doubt) [Compound 32, 1-((R)-2-((3R,5R,8R,9R,10S,13S,14S,17S)-3-hydroxy-3-(methoxymethyl)-13-methylhexadecahydro-1H-cyclopenta[a]phenanthren-17-yl)-2-methoxypropyl)-1H-pyrazole-4-carbonitrile] | 100 to 1000 |
| COC[C@@]1(O)CC[C@H]2[C@H](CC[C@@H]3[C@@H]2CC[C@]2(C)[C@@H](C(C)(Cn4cc(C#N)cn4)OC)CC[C@@H]32)C1 (stereo in doubt) [Compound 33, 1-[(2S)-2-[(1S,3aS,3bR,5aR,7R,9aS,9bR,11aS)-7-hydroxy-7-(methoxymethyl)-11a-methyl-hexadecahydro-1H-cyclopenta[a]phenanthren-1-yl]-2-methoxypropyl]-1H-pyrazole-4-carbonitrile] | 100 to 1000 |
| C[C@@]1(O)CC[C@H]2[C@H](CC[C@@H]3[C@@H]2CC[C@@]2(C)[C@H]3CC[C@@H]2[C@@](C)(O)Cn2cc(C#N)cn2)C1 [Compound 1, 1-((R)-2-hydroxy-2-((3R,5R,8R,9R,10S,13S,14S,17S)-3-hydroxy-3,13-dimethylhexadecahydro-1H-cyclopenta[a]phenanthren-17-yl)propyl)-1H-pyrazole-4-carbonitrile] | < 100 |
| C[C@@]1(O)CC[C@H]2[C@H](CC[C@@H]3[C@@H]2CC[C@@]2(C)[C@H]3CC[C@@H]2[C@](C)(O)Cn2cc(C#N)cn2)C1 [Compound 2, 1-((S)-2-hydroxy-2-((3R,5R,8R,9R,10S,13S,14S,17S)-3-hydroxy-3,13-dimethylhexadecahydro-1H-cyclopenta[a]phenanthren-17-yl)propyl)-1H-pyrazole-4-carbonitrile] | < 100 |
| CC[C@]12CC[C@@](C)(O)C[C@H]1CC[C@H]1[C@@H]3CC[C@H]([C@](C)(O)Cn4cc(C#N)cn4)[C@@]3(C)CC[C@@H]12 [Compound 3, 1-((S)-2-((3R,5R,8S,9S,10S,13S,14S,17S)-10-ethyl-3-hydroxy-3,13-dimethylhexadecahydro-1H-cyclopenta[a]phenanthren-17-yl)-2-hydroxypropyl)-1H-pyrazole-4-carbonitrile] | < 100 |
| CC[C@]12CC[C@@](C)(O)C[C@H]1CC[C@H]1[C@@H]3CC[C@H]([C@@](C)(O)Cn4cc(C#N)cn4)[C@@]3(C)CC[C@@H]12 [Compound 4, 1-((R)-2-((3R,5R,8S,9S,10S,13S,14S,17S)-10-ethyl-3-hydroxy-3,13-dimethylhexadecahydro-1H-cyclopenta[a]phenanthren-17-yl)-2-hydroxypropyl)-1H-pyrazole-4-carbonitrile] | < 100 |
| CC[C@]12CC[C@@](C)(O)C[C@H]1CC[C@H]1[C@@H]3CC[C@H]([C@@](C)(Cn4cc(C#N)cn4)OC)[C@@]3(C)CC[C@@H]12 [Compound 5, 1-((S)-2-((3R,5R,8S,9S,10S,13S,14S,17S)-10-ethyl-3-hydroxy-3,13-dimethylhexadecahydro-1H-cyclopenta[a]phenanthren-17-yl)-2-methoxypropyl)-1H-pyrazole-4-carbonitrile] | < 100 |
| CC[C@]12CC[C@@](C)(O)C[C@H]1CC[C@H]1[C@@H]3CC[C@H]([C@](C)(Cn4cc(C#N)cn4)OC)[C@@]3(C)CC[C@@H]12 [Compound 6, 1-((R)-2-((3R,5R,8S,9S,10S,13S,14S,17S)-10-ethyl-3-hydroxy-3,13-dimethylhexadecahydro-1H-cyclopenta[a]phenanthren-17-yl)-2-methoxypropyl)-1H-pyrazole-4-carbonitrile] | < 100 |
| CCC[C@@]1(O)CC[C@H]2[C@H](CC[C@@H]3[C@@H]2CC[C@@]2(C)[C@H]3CC[C@@H]2[C@](C)(O)Cn2cc(C#N)cn2)C1 [Compound 7, 1-((S)-2-hydroxy-2-((3R,5R,8R,9R,10S,13S,14S,17S)-3-hydroxy-13-methyl-3-propylhexadecahydro-1H-cyclopenta[a]phenanthren-17-yl)propyl)-1H-pyrazole-4-carbonitrile] | < 100 |
| CCC[C@@]1(O)CC[C@H]2[C@H](CC[C@@H]3[C@@H]2CC[C@@]2(C)[C@H]3CC[C@@H]2[C@@](C)(O)Cn2cc(C#N)cn2)C1 [Compound 8, 1-((R)-2-hydroxy-2-((3R,5R,8R,9R,10S,13S,14S,17S)-3-hydroxy-13-methyl-3-propylhexadecahydro-1H-cyclopenta[a]phenanthren-17-yl)propyl)-1H-pyrazole-4-carbonitrile] | 100 to 1000 |
| CCC[C@@]1(O)CC[C@H]2[C@@H](CC[C@@H]3[C@@H]2CC[C@@]2(C)[C@H]3CC[C@@H]2[C@](C)(O)Cn2cc(C#N)cn2)C1 [Compound 9, 1-((S)-2-hydroxy-2-((3R,5S,8R,9R,10S,13S,14S,17S)-3-hydroxy-13-methyl-3-propylhexadecahydro-1H-cyclopenta[a]phenanthren-17-yl)propyl)-1H-pyrazole-4-carbonitrile] | 100 to 1000 |
| CCC[C@@]1(O)CC[C@H]2[C@@H](CC[C@@H]3[C@@H]2CC[C@@]2(C)[C@H]3CC[C@@H]2[C@@](C)(O)Cn2cc(C#N)cn2)C1 [Compound 10, 1-((R)-2-hydroxy-2-((3R,5S,8R,9R,10S,13S,14S,17S)-3-hydroxy-13-methyl-3-propylhexadecahydro-1H-cyclopenta[a]phenanthren-17-yl)propyl)-1H-pyrazole-4-carbonitrile] | ≥ 1000 |
| CC[C@@]1(O)CC[C@H]2[C@H](CC[C@@H]3[C@@H]2CC[C@@]2(C)[C@H]3CC[C@@H]2[C@](C)(O)Cn2cc(C#N)cn2)C1 [Compound 11, 1-((S)-2-((3R,5R,8R,9R,10S,13S,14S,17S)-3-ethyl-3-hydroxy-13-methylhexadecahydro-1H-cyclopenta[a]phenanthren-17-yl)-2-hydroxypropyl)-1H-pyrazole-4-carbonitrile] | < 100 |
| CC[C@@]1(O)CC[C@H]2[C@H](CC[C@@H]3[C@@H]2CC[C@@]2(C)[C@H]3CC[C@@H]2[C@@](C)(O)Cn2cc(C#N)cn2)C1 [Compound 12, 1-((R)-2-((3R,5R,8R,9R,10S,13S,14S,17S)-3-ethyl-3-hydroxy-13-methylhexadecahydro-1H-cyclopenta[a]phenanthren-17-yl)-2-hydroxypropyl)-1H-pyrazole-4-carbonitrile] | 100 to 1000 |
| CC[C@@]1(O)CC[C@H]2[C@@H](CC[C@@H]3[C@@H]2CC[C@@]2(C)[C@H]3CC[C@@H]2[C@](C)(O)Cn2cc(C#N)cn2)C1 [Compound 13, 1-((S)-2-((3R,5S,8R,9R,10S,13S,14S,17S)-3-ethyl-3-hydroxy-13-methylhexadecahydro-1H-cyclopenta[a]phenanthren-17-yl)-2-hydroxypropyl)-1H-pyrazole-4-carbonitrile] | 100 to 1000 |
| CC[C@@]1(O)CC[C@H]2[C@@H](CC[C@@H]3[C@@H]2CC[C@@]2(C)[C@H]3CC[C@@H]2[C@@](C)(O)Cn2cc(C#N)cn2)C1 [Compound 14, 1-((R)-2-((3R,5S,8R,9R,10S,13S,14S,17S)-3-ethyl-3-hydroxy-13-methylhexadecahydro-1H-cyclopenta[a]phenanthren-17-yl)-2-hydroxypropyl)-1H-pyrazole-4-carbonitrile] | ≥ 1000 |
| CCOC[C@@]1(O)CC[C@H]2[C@H](CC[C@@H]3[C@@H]2CC[C@@]2(C)[C@H]3CC[C@@H]2[C@@](C)(O)Cn2cc(C#N)cn2)C1 [Compound 16, 1-((R)-2-((3R,5R,8R,9R,10S,13S,14S,17S)-3-(ethoxymethyl)-3-hydroxy-13-methylhexadecahydro-1H-cyclopenta[a]phenanthren-17-yl)-2-hydroxypropyl)-1H-pyrazole-4-carbonitrile] | < 100 |
| CCC[C@@]1(O)CC[C@@]2(C)[C@@H](CC[C@@H]3[C@@H]2CC[C@@]2(C)[C@H]3CC[C@@H]2[C@](C)(O)Cn2cc(C#N)cn2)C1 [Compound 17, 1-((S)-2-hydroxy-2-((3R,5S,8R,9S,10S,13S,14S,17S)-3-hydroxy-10,13-dimethyl-3-propylhexadecahydro-1H-cyclopenta[a]phenanthren-17-yl)propyl)-1H-pyrazole-4-carbonitrile] | 100 to 1000 |
| COC[C@@]1(O)CC[C@H]2[C@@H](CC[C@@H]3[C@@H]2CC[C@@]2(C)[C@H]3CC[C@@H]2[C@](C)(O)Cn2cc(C#N)cn2)C1 [Compound 19, 1-((S)-2-hydroxy-2-((3R,5S,8R,9R,10S,13S,14S,17S)-3-hydroxy-3-(methoxymethyl)-13-methylhexadecahydro-1H-cyclopenta[a]phenanthren-17-yl)propyl)-1H-pyrazole-4-carbonitrile] | < 100 |
